According to ChEMBL document CHEMBL2176889, “Design, synthesis, and pharmacological evaluation of monocyclic pyrimidinones as novel inhibitors of PDE5” (J Med Chem, 2012):
Calls of active or inactive are those of the source. The rule behind the calls is not given here.

What was measured:
[1] = Oral bioavailability in Sprague-Dawley rat at 10 mg/kg by LC-MS/MS method; format: ADME, organism-based; conditions: in vivo
[2] = tested on: Rattus norvegicus; assay: Increase in intracavernous pressure/blood pressure in Sprague-Dawley rat model of erection at 10 mg/kg, po measured 30 mins post dose; format: functional, organism-based; design: dose 10 mg/kg
[3] = Inhibition of dog adrenal gland PDE2 by [3H]cGMP based tritium scintillation proximity assay; format: tissue-based, Canis lupus familiaris
[4] = molecular target: High affinity 3',5'-cyclic-AMP phosphodiesterase 7A (Homo sapiens, UniProt Q13946)
Chain of High affinity 3',5'-cyclic-AMP phosphodiesterase 7A (Q13946 whole entry): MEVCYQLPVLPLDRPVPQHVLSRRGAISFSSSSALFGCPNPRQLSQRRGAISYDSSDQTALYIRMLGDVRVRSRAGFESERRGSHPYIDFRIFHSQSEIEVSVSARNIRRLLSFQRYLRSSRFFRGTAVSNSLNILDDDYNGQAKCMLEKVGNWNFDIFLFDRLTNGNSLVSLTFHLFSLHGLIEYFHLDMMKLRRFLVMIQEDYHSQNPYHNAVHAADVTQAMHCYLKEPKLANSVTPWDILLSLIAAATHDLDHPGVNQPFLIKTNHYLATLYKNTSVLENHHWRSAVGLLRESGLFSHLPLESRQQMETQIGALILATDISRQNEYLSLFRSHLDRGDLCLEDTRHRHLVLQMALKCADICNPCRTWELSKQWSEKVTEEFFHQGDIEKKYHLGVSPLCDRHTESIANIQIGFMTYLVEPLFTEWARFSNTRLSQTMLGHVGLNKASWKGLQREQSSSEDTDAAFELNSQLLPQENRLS

[5] = MRT (0 to 10 hrs) in Sprague-Dawley rat at 5 mg/kg, iv by LC-MS/MS method; format: ADME, organism-based; design: dose 5 mg/kg, route intravenous; conditions: in vivo
[6] = MRT (0 to 10 hrs) in Sprague-Dawley rat at 10 mg/kg, po by LC-MS/MS method; format: ADME, organism-based; design: dose 10 mg/kg, route oral; conditions: in vivo
[7] = Tmax in Sprague-Dawley rat at 10 mg/kg, po by LC-MS/MS method; format: ADME, organism-based; design: dose 10 mg/kg, route oral; conditions: in vivo
[8] = AUC (0 to 10 hrs) in Sprague-Dawley rat at 5 mg/kg, iv by LC-MS/MS method; format: ADME, organism-based; design: time < 10 hr, dose 5 mg/kg, route intravenous; conditions: plasma
[9] = AUC (0 to 10 hrs) in Sprague-Dawley rat at 10 mg/kg, po by LC-MS/MS method; format: ADME, organism-based; design: time < 10 hr, dose 10 mg/kg, route oral; conditions: plasma
[10] = Half life in Sprague-Dawley rat at 5 mg/kg, iv by LC-MS/MS method; format: ADME, organism-based; design: dose 5 mg/kg, route intravenous; conditions: in vivo
[11] = Volume of distribution in Sprague-Dawley rat at 5 mg/kg, iv by LC-MS/MS method; format: ADME, organism-based; design: dose 5 mg/kg, route intravenous; conditions: in vivo
[12] = Clearance in Sprague-Dawley rat at 5 mg/kg, iv by LC-MS/MS method; format: ADME, organism-based; design: dose 5 mg/kg, route intravenous; conditions: in vivo
[13] = Cmax in Sprague-Dawley rat at 10 mg/kg, po by LC-MS/MS method; format: ADME, organism-based; design: dose 10 mg/kg, route oral; conditions: in vivo
[14] = Half life in Sprague-Dawley rat at 10 mg/kg, po by LC-MS/MS method; format: ADME, organism-based; design: dose 10 mg/kg, route oral; conditions: in vivo

bioavailability [1] [%]	IC50 [3] [µM]	IC50 [4] [µM]	MRT last [5] [min]	MRT last [6] [h]	Tmax [7] [min]	AUC(0-t) at 10 h [8] [ng·h/mL]	AUC(0-t) at 10 h [9] [ng·h/mL]	half-life [10] [min]	Vd [11] [L/kg]	clearance [12] [mL/min/kg]	Cmax [13] [ng/mL]	half-life [14] [min]	Compound	Activity [2]
23	> 10	4.69	–	–	–	–	–	–	–	–	–	–	CCCc1nn(C)c2c(=O)[nH]c(-c3cc(S(=O)(=O)N4CCN(C)CC4)ccc3OCC)nc12	Active
10	–	–	48.6	3.09	15	4470	895	77.4	2.07	19.5	468	236	CCCOc1ccc(S(=O)(=O)N2CCN(C)CC2)cc1-c1nc(CC)c(CC)c(=O)[nH]1	Active
